Assay results from US20180289809A1, “FORMULATIONS OF HYDROPHILIC COMPOUNDS” (BCS Business Consulting Services Pte Ltd., priority 2015, published 2018).

assay: Formation of clear nanoemulsion formulation with substituted hydrophobic phase ingredient; format: physicochemical; conditions: used as hydrophobic phase ingredient substituted into the examples; failures generally began cloudy and separated into two phases, primarily within 24 hours

Structure (SMILES)	forms successful nanoemulsion / clear formulation
CCCCCCCCCCCCCCCC(=O)OC(C)C [isopropyl palmitate]	did not form successful nanoemulsion formulations
CC(C)=CCC/C(C)=C/CC/C(C)=C/CC/C=C(\C)CC/C=C(\C)CCC=C(C)C [Squalene]	did form clear formulations
CCCCC(CC)COC(=O)c1ccccc1 (stereo not shown) [ethylhexyl benzoate]	did not form successful nanoemulsion formulations
CCCCCCCCCCCCCCCCOC(=O)CCCCCCC [cetyl octanoate]	did not form successful nanoemulsion formulations
CCCCCCCCCCCCCCCCCC(=O)OCCCCCCCC [octyl stearate]	did not form successful nanoemulsion formulations
C[Si]1(C)O[Si](C)(C)O[Si](C)(C)O[Si](C)(C)O[Si](C)(C)O1 [cycopentasiloxane]	did not form successful nanoemulsion formulations
CCCCC/C=C\C/C=C\CCCCCCCC(=O)Oc1c(C)c(C)c2c(c1C)CC[C@@](C)(CCC[C@H](C)CCC[C@H](C)CCCC(C)C)O2 [tocopheryl linoleate]	did not form successful nanoemulsion formulations
